Results taken from EP4624466A1, “DEGRADER FOR DECOMPOSING CMET PROTEIN, AND PHARMACEUTICAL COMPOSITION COMPRISING SAME” (Innocure Therapeutics, Inc., priority 2022, dated 2024).
Where two headings read alike, the source gives them in different places.

Legend:
MKN-45 = assay: Cell viability / antiproliferative assay (WST-8), MKN-45; conditions: read-out: MKN-45 IC50;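 also: MKN-45 is a human gastric cancer line overexpressing c-MET, growth inhibition read as WST-8 formazan absorbance at 450 nm after 2 h dye incubation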
Description: c-MET overexpressing human gastric cancer cell lines [MKN45] and [SNU638] were cultured in RPMI medium with 10% fetal bovine serum, penicillin (100U/ml), and streptomycin (100mg/ml), and c-MET exon 14 skipping mutant human gastric cancer cell lines [Hs746T] were cultured in DMEM media. The c-MET overexpressing human lung cancer cell line EBC-1 was cultured in MEM media with the addition of 10% fetal bovine serum, penicillin (100U/ml), and streptomycin (100mg/ml). […] The compound synthesized in accordance with the present invention was prepared with a raw material solution of 10 mM dissolved in DMSO (dimethyl sulfoxide), and was sequentially diluted and processed.
In order to observe the inhibitory activity on cell growth, cells were dispensed in a 96-well plate at a concentration of 5,000 cells/well, and then treated with the compound prepared at various concentrations for 72 hours. The viability of the cells was calculated using GraphicPad Prism 8.0 software by adding 10 ml per well of WST-8 (water soluble tetrazolium salt) sample, which reacts with dehydrogenase present in the electron transport system of mitochondria to produce formazon, incubated for 2 hours, and measured absorbance at 450 nm.

c-MET = c-MET (Homo sapiens, UniProt P08581); assay: c-MET protein degradation (Simple Western), MKN-45; format: cell-based; parameters: assess the resolution of the compound of the present invention for c-MET expressed in cells; endogenous in cells; host or cells: MKN45 (human gastric cancer); conditions: c-MET overexpressing gastric cancer cell line MKN-45, treated 24 hours
Description: In order to assess the resolution of the compound of the present invention for c-MET expressed in cells, cells were dispensed in a 12-well plate at a concentration of 2 × 10^5 cells/well, and then gastric cancer cell lines were treated with samples for 24 hours and lung cancer cell lines were treated for 48 hours. Cell lysates were collected using a scraper on ice, centrifuged at 4°C15,000 rpm for 30 min to obtain a protein-containing supernatant. Protein expression was then measured using the Simple Western Automated Western Blot System Abby instrument using 3 µg of protein for each sample. SDS and heat-induced denaturation proteins were separated by molecular weight, attached to capillary, reacted with anti-c-MET or anti-GAPDH antibodies, which are primary antibodies, and then reacted with HRP-conjugated secondary antibodies, and analyzed the protein expression signal with compass software. Protein expression was normalized based on the expression value of GAPDH, and protein development in each sample was measured as a percentage (%) based on 100% of samples treated with 0.1% DMSO carriers, and DC50 (concentration of a compound where 50% protein inhibition is achieved) was calculated from the change in protein expression amount due to compound treatment.

[1] = MKN-45 cells, 72 hours, WST-8, Table 1

c-MET, sequence (P08581 25-1390): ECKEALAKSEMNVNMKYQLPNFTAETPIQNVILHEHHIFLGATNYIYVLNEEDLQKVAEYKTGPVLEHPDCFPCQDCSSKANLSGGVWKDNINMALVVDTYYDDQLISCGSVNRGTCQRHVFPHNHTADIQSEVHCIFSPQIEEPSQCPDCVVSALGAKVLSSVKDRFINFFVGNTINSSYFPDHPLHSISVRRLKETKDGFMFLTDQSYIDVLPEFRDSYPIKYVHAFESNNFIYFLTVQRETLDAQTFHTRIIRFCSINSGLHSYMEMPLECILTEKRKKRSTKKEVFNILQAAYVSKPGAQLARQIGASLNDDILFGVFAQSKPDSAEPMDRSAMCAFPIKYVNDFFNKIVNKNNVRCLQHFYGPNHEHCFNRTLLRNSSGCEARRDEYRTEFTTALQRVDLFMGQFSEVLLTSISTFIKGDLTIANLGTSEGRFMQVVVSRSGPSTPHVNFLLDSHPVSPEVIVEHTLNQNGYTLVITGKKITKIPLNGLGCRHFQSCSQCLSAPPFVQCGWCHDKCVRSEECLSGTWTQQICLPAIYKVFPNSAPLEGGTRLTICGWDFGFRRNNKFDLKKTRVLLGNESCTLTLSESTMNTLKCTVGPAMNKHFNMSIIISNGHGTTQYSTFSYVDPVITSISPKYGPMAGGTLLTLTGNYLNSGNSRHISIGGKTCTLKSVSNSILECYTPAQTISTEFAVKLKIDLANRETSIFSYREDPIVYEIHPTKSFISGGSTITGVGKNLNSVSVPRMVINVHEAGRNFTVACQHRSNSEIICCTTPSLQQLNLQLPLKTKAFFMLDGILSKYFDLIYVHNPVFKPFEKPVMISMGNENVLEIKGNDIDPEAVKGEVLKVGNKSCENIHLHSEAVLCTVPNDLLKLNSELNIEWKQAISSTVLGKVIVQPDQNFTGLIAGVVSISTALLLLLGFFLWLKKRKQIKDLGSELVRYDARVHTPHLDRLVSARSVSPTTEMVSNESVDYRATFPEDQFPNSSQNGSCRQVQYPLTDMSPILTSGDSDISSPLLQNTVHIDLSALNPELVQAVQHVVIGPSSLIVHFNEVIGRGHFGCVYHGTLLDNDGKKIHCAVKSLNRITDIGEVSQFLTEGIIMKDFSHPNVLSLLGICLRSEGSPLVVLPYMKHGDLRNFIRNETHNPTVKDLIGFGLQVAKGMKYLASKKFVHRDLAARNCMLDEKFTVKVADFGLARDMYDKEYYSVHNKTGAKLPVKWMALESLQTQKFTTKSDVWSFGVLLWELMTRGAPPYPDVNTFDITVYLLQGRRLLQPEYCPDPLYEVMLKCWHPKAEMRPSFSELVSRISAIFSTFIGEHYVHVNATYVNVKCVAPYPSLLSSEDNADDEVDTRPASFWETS

Compound	IC50 (MKN-45; Homo sapiens, MKN-45, 72 h) [nM]	DC50 (c-MET; Table 2) [nM]	DC50 (c-MET; Table 1) [nM]	IC50 (MKN-45; [1]) [nM]
Cc1nn(C2CCC(=O)NC2=O)c(=O)c2ccc(N3CCC(CN4CCN(CC(=O)N5CCC(COc6cnc(-c7cccc(Cn8nc(-c9cccc(C#N)c9)ccc8=O)c7)nc6)CC5)CC4)CC3)cc12 (stereo not shown) [ICT-0001213]	< 100	< 100	–	–
Cc1nn(C2CCC(=O)NC2=O)c(=O)c2cc(N3CCN(CC4CCN(C(=O)CN5CCC(COc6cnc(-c7cccc(Cn8nc(-c9cccc(C#N)c9)ccc8=O)c7)nc6)CC5)CC4)CC3)ccc12 (stereo not shown) [ICT-0001195]	< 100	< 100	–	–
Cc1nn(C2CCC(=O)NC2=O)c(=O)c2cc(N3CCC(C(=O)NCCCNC(=O)CN4CCC(COc5cnc(-c6cccc(Cn7nc(-c8cccc(C#N)c8)ccc7=O)c6)nc5)CC4)CC3)ccc12 (stereo not shown) [ICT-0001238]	–	> 1000	–	–
Cc1nn(C2CCC(=O)NC2=O)c(=O)c2ccc(N3CCN(C[C@@H]4CN(C(=O)CN5CCC(COc6cnc(-c7cccc(Cn8nc(-c9cccc(C#N)c9)ccc8=O)c7)nc6)CC5)CCO4)CC3)cc12 (stereo partly shown) [ICT-0001258]	< 100	< 100	–	–
Cn1cc(-c2cnc3c(nnn3C[C@@H]3CN(c4ncc(-c5ccc(CN6CCN(C(=O)CCCNc7cccc8cnn(C9CCC(=O)NC9=O)c(=O)c78)CC6)cc5)cn4)CCO3)n2)cn1 (stereo partly shown) [ICT-0000969]	< 100	–	< 100	–
N#Cc1cccc(-c2ccc(=O)n(Cc3cccc(-c4ncc(OCC5CCN(C(=O)COCCOCCNc6ccc7c(=O)n(C8CCC(=O)NC8=O)ncc7c6)CC5)cn4)c3)n2)c1 (stereo not shown) [ICT-0000986]	< 100	< 100	–	–
Cc1nn(C2CCC(=O)NC2=O)c(=O)c2ccc(N3CCN(C(=O)CN4CCC(COc5cnc(-c6cccc(Cn7nc(-c8cccc(C#N)c8)ccc7=O)c6)nc5)CC4)CC3)cc12 (stereo not shown) [ICT-0001177, 3-(1-{[3-(5-{[1-(2-{4-[2-(2,6-dioxopiperidin-3-yl)-4-methyl-1-oxo-1,2-dihydropthalazine-6-yl]piperazine-1-yl}-2-oxoethyl)piperidine-4-yl]methoxy}pyrimidine-2-yl)phenyl]methyl}-6-oxo-1,6-dihydropyridazine-3-yl)benzonitrile]	< 100	< 100	–	–
N#Cc1cccc(-c2ccc(=O)n(Cc3cccc(-c4ncc(OCC5CCN(C(=O)CCOCCOCCOCCOCCNc6cccc7cnn(C8CCC(=O)NC8=O)c(=O)c67)CC5)cn4)c3)n2)c1 (stereo not shown) [ICT-0000907]	< 100	–	–	–
Cc1nn(C2CCC(=O)NC2=O)c(=O)c2c(NCC(=O)N3CCC(COc4cnc(-c5cccc(Cn6nc(-c7cccc(C#N)c7)ccc6=O)c5)nc4)CC3)cccc12 (stereo not shown) [ICT-0000981]	< 100	> 1000	–	–
Cc1nn(C2CCC(=O)NC2=O)c(=O)c2ccc(N3CCN(C4CCN(C(=O)CN5CCC(COc6cnc(-c7cccc(Cn8nc(-c9cccc(C#N)c9)ccc8=O)c7)nc6)CC5)CC4)CC3)cc12 (stereo not shown) [ICT-0001237]	< 100	< 100	–	–
Cc1nn(C2CCC(=O)NC2=O)c(=O)c2ccc(N3CCN(CCC(=O)N4CCC(COc5cnc(-c6cccc(Cn7nc(-c8cccc(C#N)c8)ccc7=O)c6)nc5)CC4)CC3)cc12 (stereo not shown) [ICT-0001174]	< 100	< 100	–	–
Cc1nn(C2CCC(=O)NC2=O)c(=O)c2cc(N3CCC(N4CCN(C(=O)CN5CCC(COc6cnc(-c7cccc(Cn8nc(-c9cccc(C#N)c9)ccc8=O)c7)nc6)CC5)CC4)CC3)ccc12 (stereo not shown) [ICT-0001233, 3-(1-(3-(5-((1-(2-(4-(1-(3-(2,6-dioxopiperidine-3-yl)-1-methyl-4-oxo-3,4-dihydropthalazine-6-yl)piperidine-4-yl)piperazine-1-yl)2-oxoethyl)piperidine-4-il)methoxy)pyrimidine-2-yl)benzyl)6-oxo-1,6-dihydropyridine-3-yl)benzonitrile]	< 100	< 100	–	–
N#Cc1cccc(-c2ccc(=O)n(Cc3cccc(-c4ncc(OCC5CCN(C(=O)CCCN6CCN(c7ccc8c(=O)n(C9CCC(=O)NC9=O)ncc8c7)CC6)CC5)cn4)c3)n2)c1 (stereo not shown) [ICT-0001200]	< 100	< 100	–	–
Cc1nn(C2CCC(=O)NC2=O)c(=O)c2ccc(N3CCN(CCCCC(=O)N4CCC(COc5cnc(-c6cccc(Cn7nc(-c8cccc(C#N)c8)ccc7=O)c6)nc5)CC4)CC3)cc12 (stereo not shown) [ICT-0001176]	< 100	< 100	–	–
Cc1nn(C2CCC(=O)NC2=O)c(=O)c2ccc(N3CCN(CC4CCN(CC(=O)N5CCC(COc6cnc(-c7cccc(Cn8nc(-c9cccc(C#N)c9)ccc8=O)c7)nc6)CC5)CC4)CC3)cc12 (stereo not shown) [ICT-0001256]	–	< 100	–	–
Cn1cc(-c2cnc3c(nnn3C[C@@H]3CN(c4ncc(-c5ccc(CN6CCN(C(=O)CCOCCOCCNc7cccc8cnn(C9CCC(=O)NC9=O)c(=O)c78)CC6)cc5)cn4)CCO3)n2)cn1 (stereo partly shown) [ICT-0000940]	100 to 1000	–	–	–
Cn1cc(-c2cnc3c(nnn3C[C@@H]3CN(c4ncc(-c5ccc(CN6CCN(C(=O)CCOCCOCCOCCOCCOCCOCCNc7cccc8cnn(C9CCC(=O)NC9=O)c(=O)c78)CC6)cc5)cn4)CCO3)n2)cn1 (stereo partly shown) [ICT-0000968]	–	–	–	100 to 1000
Cn1cc(-c2cnc3c(nnn3C[C@@H]3CN(c4ncc(-c5ccc(CN6CCN(C(=O)COCCOCCOCCOCCOCCNc7cccc8cnn(C9CCC(=O)NC9=O)c(=O)c78)CC6)cc5)cn4)CCO3)n2)cn1 (stereo partly drawn) [ICT-0000967, 3-(8-((17-(4-(4-(2-((S)-2-((5-(1-methyl-1H-pyrazole-4-yl)-1H-[1,2,3]triazolo[4,5-b]pyrazine-1-yl)methyl)morpholino)pyrimidine-5-yl)benzyl)piperazine-1-yl)17-oxo-3,6,9,12,15-pentaheptacel)amino)-1-oxopthalazine-2(1H)-yl)piperidine-2,6-dione]	–	–	–	100 to 1000
N#Cc1cccc(-c2ccc(=O)n(Cc3cccc(-c4ncc(OCC5CCN(C(=O)CCCCCNc6ccc7c(=O)n(C8CCC(=O)NC8=O)ncc7c6)CC5)cn4)c3)n2)c1 (stereo not shown) [ICT-0000984, 3-(1-{[3-(5-{[1-(6-{[2-(2,6-dioxopiperidin-3-yl)-1-oxo-1,2-dihydropthalazine-6-yl]amino}hexanoyl)piperidine-4-il]methoxy}pyrimidine-2-yl)phenyl]methyl}-6-oxo-1,6-dihydropyridazine-3-yl)benzonitrile]	< 100	–	–	–
Cc1nn(C2CCC(=O)NC2=O)c(=O)c2ccc(N3CCN(c4ccc(NCC(=O)N5CCC(COc6cnc(-c7cccc(Cn8nc(-c9cccc(C#N)c9)ccc8=O)c7)nc6)CC5)cc4)CC3)cc12 (stereo not shown) [ICT-0001240, 3-(1-(3-(5-((1-((4-(4-(2-(2,6-dioxopiperidin-3-yl)-4-methyl-1-oxo-1,2-dihydropthalazine-6-yl)piperazine-1-yl)phenyl)glycyl)piperidine-4-il)methoxy)pyrimidine-2-yl)benzyl)6-oxo-1,6-dihydropyridazine-3-yl)benzonitrile]	< 100	–	–	–
Cn1cc(-c2cnc3c(nnn3C[C@@H]3CN(c4ncc(-c5ccc(CN6CCN(C(=O)CCCCCNc7cccc8cnn(C9CCC(=O)NC9=O)c(=O)c78)CC6)cc5)cn4)CCO3)n2)cn1 (stereo partly drawn) [ICT-0000970, 3-(8-((6-(4-(4-(2-((S)-2-((5-(1-methyl-1H-pyrazole-4-yl)-1H-[1,2,3]triazolo[4,5-b]pyrazine-1-yl)methyl)morpholino)pyrimidine-5-yl)benzyl)piperazine-1-yl)6-oxohexyl)amino)1-oxopthalazine-2(1H)-yl)piperidine-2,6-dione]	–	–	–	< 100
Cn1cc(-c2cnc3c(nnn3C[C@@H]3CN(c4ncc(-c5ccc(CN6CCN(C(=O)COCCOCCOCCNc7cccc8cnn(C9CCC(=O)NC9=O)c(=O)c78)CC6)cc5)cn4)CCO3)n2)cn1 (stereo partly drawn) [ICT-0000942, 3-[8-(12-{4-[(4-{2-[(2S)-2-{[5-(1-methyl-1H-pyrazole-4-yl)-1H-[1,2,3]triazolo[4,5-b]pyrazine-1-yl]methyl}morpholine-4-day]pyrimidine-5-yl}phenyl)methyl]piperazine-1-il}-12-oxo-4,7,10-trioxa-1-azadodecane-1-yl)-1-oxo-1,2-dihydroptalazine-2-yl]piperidine-2,6-dione]	–	–	–	< 100
Cn1cc(-c2cnc3c(nnn3C[C@@H]3CN(c4ncc(-c5ccc(CN6CCN(C(=O)CCOCCOCCOCCOCCNc7cccc8cnn(C9CCC(=O)NC9=O)c(=O)c78)CC6)cc5)cn4)CCO3)n2)cn1 (stereo partly drawn) [ICT-0000946, 3-[8-(16-{4-[(4-{2-[(2S)-2-{[5-(1-methyl-1H-pyrazole-4-yl)-1H-[1,2,3]triazolo[4,5-b]pyrazine-1-yl]methyl}morpholine-4-day]pyrimidine-5-yl}phenyl)methyl]piperazine-1-yl}-16-oxo-4,7,10,13-tetraoxa-1-azahexadecane-1-yl)-1-oxo-1,2-dihydroptalazine-2-yl]piperidine-2,6-dione]	–	–	–	100 to 1000
Cc1nn(C2CCC(=O)NC2=O)c(=O)c2ccc(NCCCC(=O)N3CCC(COc4cnc(-c5cccc(Cn6nc(-c7cccc(C#N)c7)ccc6=O)c5)nc4)CC3)cc12 (stereo not shown) [ICT-0000989]	< 100	–	–	–
Cc1nn(C2CCC(=O)NC2=O)c(=O)c2cc(N3CCN(C(=O)CN4CCC(COc5cnc(-c6cccc(Cn7nc(-c8cccc(C#N)c8)ccc7=O)c6)nc5)CC4)CC3)ccc12 (stereo not shown) [ICT-0001115, 3-(1-(3-(5-((1-(2-(4-(3-(2,6-dioxopiperidin-3-yl)-1-methyl-4-oxo-3,4-dihydropetalazine-6-yl)piperazine-1-yl)2-oxoethyl)piperidine-4-il)methoxy)pyrimidine-2-yl)benzyl)6-oxo-1,6-dihydropyridazine-3-yl)benzonitrile]	–	< 100	–	–
